Measurements: US20090022803A1, “Oral Formulations For Delivery of Catecholic Butanes Including Ndga Compounds” (priority 2005, published 2009)

Test: Stability of M4N formulations at room temperature (time to crystallized precipitation)
Type: physicochemical
Experimental: A 10 mL solution of M4N at a concentration of about 10 mg/mL in 40% BP-β-CD was made as follows. About 10 mL of the 40% HP-β-CD solution were added to a glass beaker containing a stir bar. The beaker was placed on a magnetic plate and the stir bar was set to stir at medium speed. About […] of M4N were slowly added to the 40% HP-β-CD in the center of the beaker with the aid of a spatula. The M4N/40% HP-β-CD mixture was stirred for 2 hr or until all M4N was uniformly suspended without any clumps being present. The M4N/40% HP-β-CD mixture was optionally heated at 80° C. for about 30 min. (or longer if a larger volume of solution was desired, for example, 1 hr at 80° C. for 100 mL of the M4N/HP-β-CD mixture), or longer as needed to ensure complete dissolution of M4N. […] The final M4N/40% HP-β-CD solution was stored at room temperature and was kept protected from light. This process may be scaled up or down to obtain the requisite volume or concentration of M4N. Formulations containing M4N in other cyclodextrin solutions may be similarly made, such as, for example, by substituting HP-β-CD in the process described above with other cyclodextrins.
A 100 mL solution of M4N at a concentration of about 25 mg/mL in PEG 300 was made as follows. About 100 mL of PEG 300 were added to a glass beaker containing a stir bar. The beaker was placed on a magnetic plate and the stir bar was set to stir at medium speed. About 2.5 g of M4N were slowly added to the PEG 300 in the center of the beaker with the aid of a spatula to prevent M4N from sticking to the beaker wall. The M4N/PEG 300 mixture was stirred for 24 hr or until all M4N had dissolved or was uniformly suspended without any clumps being present. The M4N/PEG 300 mixture was optionally heated at about 60° C. for about 30 min. (or longer if a larger volume of solution was desired, for example, 1 hr at 60° C. for 500 mL of the M4N/PEG 300 mixture), or longer as needed to ensure complete dissolution of M4N. […] If crystals formed, the M4N/PEG 300 solution could be heated again at 60° C. for about 1 hr, with stirring, on a hot magnetic plate until all M4N was dissolved back in solution. The final M4N/PEG 300 solution was stored at room temperature and was kept protected from light. This process may be scaled up or down to obtain the requisite volume or concentration of M4N. Formulations containing M4N in other PEGs may be similarly made, such as, for example, by substituting PEG 300 in the process described above with PEG 400 or PEG 400 monolaurate.
Formulations containing M4N in other water-insoluble lipids combined with non-ionic, ionic or amphipathic surfactants or water-soluble organic solvents may be similarly made, such as, for example, by substituting sesame oil in the process described above with corn oil, olive oil, soybean oil, peppermint oil, or mineral oil and substituting Tween® 20 with Tween® 80, TPGS, lecithin, PEG 300, PEG 400, PEG 400 monolaurate, glycerol, PVP, PG, or other solubilizing agents, and combinations thereof. Stability in reference to the clear liquid solutions herein refers to the time it takes to form crystallized precipitation in solution. A stable solution is one that is clear and free of particulates for an extended period of time.

COc1ccc(C[C@@H](C)[C@@H](C)Cc2ccc(OC)c(OC)c2)cc1OC [Formulation M4N, meso-1,4-bis(3,4-dimethoxyphenyl)-2,3-dimethylbutane]
Stability at Room Temperature (M4N 1 mg/mL suspension in 50% HP-β-CD, 0.5% CMC): >7 days | Stability Time at Room Temperature (M4N 2.4 mg/mL, Sesame Oil, Tween ® 20 and Glycerol, 10% Oil emulsion in 90% saline): <1 days | Stability Time at Room Temperature (M4N 2.9 mg/mL, Sesame Oil and Tween ® 20, 10% Oil emulsion in 90% saline): <3 days | Stability at Room Temperature (M4N 3.13 mg/mL in 5% HP-β-CD, 12.5% PEG 300 (v/v)): <7 days | Stability at Room Temperature (M4N 4.17 mg/mL in 6.7% HP-β-CD, 16.7% PEG 300 (v/v)): >7 days | Stability at Room Temperature (M4N 6.25 mg/mL in 10% HP-β-CD, 25% PEG 300 (v/v)): >7 days | Stability at Room Temperature (M4N 10 mg/mL in 30% HP-β-CD): <3 days | Stability at Room Temperature (M4N 10 mg/mL in 32% HP-β-CD, 20% PEG 400 (v/v)): >7 days | Stability at Room Temperature (M4N 10 mg/mL in 50% HP-β-CD): >7 days | Stability at Room Temperature (M4N 10 mg/mL in 50% HP-β-CD in saline): >7 days | Stability Time at Room Temperature (M4N 10 mg/mL in Peppermint Oil): >3 days | stable at room temperature (M4N 10 mg/mL in Tween® 20): more than 7 days | stable at room temperature (M4N 10 mg/mL in Tween® 80): more than 3 days | Stability at Room Temperature (M4N 12.5 mg/mL in 12.5% HP-β-CD, 50% PEG 300 (v/v)): <1 days | Stability at Room Temperature (M4N 12.5 mg/mL in 12.5% HP-β-CD, 50% PEG 400 (v/v)): <1 days | Stability at Room Temperature (M4N 12.5 mg/mL in 15% HP-β-CD, 50% PEG 300 (v/v)): <7 days | Stability at Room Temperature (M4N 12.5 mg/mL in 15% HP-β-CD, 50% PEG 400 (v/v)): <3 days | Stability at Room Temperature (M4N 12.5 mg/mL in 20% HP-β-CD, 50% PEG 300 (v/v)): >7 days | Stability at Room Temperature (M4N 12.5 mg/mL in 20% HP-β-CD, 50% PEG 400 (v/v)): <7 days | Stability at Room Temperature (M4N 12.5 mg/mL in 30% HP-β-CD, 25% PEG 400 (v/v)): >7 days | Stability at Room Temperature (M4N 12.9 mg/mL in 23% HP-β-CD, 43% PEG 400 (v/v)): >7 days | Stability at Room Temperature (M4N 12.9 mg/mL in 23% HP-β-CD, 43 PEG 300 (v/v)): >7 days | Stability at Room Temperature (M4N 13.3 mg/mL in 27% HP-β-CD, 33% PEG 300 (v/v)): >7 days | Stability at Room Temperature (M4N 13.3 mg/mL in 27% HP-β-CD, 33% PEG 400 (v/v)): >7 days | stable at room temperature (M4N 20 mg/mL in Tween® 20): more than 7 days | Stability at Room Temperature (M4N 20 mg/mL suspension in 50% HP-β-CD, 0.5% CMC): >7 days | Stability Time at Room Temperature (M4N 24.3 mg/mL in 75% Sesame Oil, 9% Tween ® 20, 16% Glycerol): <7 days | Stability Time at Room Temperature (M4N 29 mg/mL in 89% Sesame Oil, 11% Tween ® 20): >7 days | Stability Time at Room Temperature (M4N 40 mg/mL in 50% Peppermint Oil, 50% Tween ® 20): >3 days | stable at room temperature (M4N 40 mg/mL in Tween® 20): less than 3 days | Stability Time at Room Temperature (M4N 50 mg/mL in Camillia Oil): >7 days | Stability Time at Room Temperature (M4N 50 mg/mL in Mineral Oil): <1 days | stable at room temperature (M4N 50 mg/mL in Tween® 80): less than 1 day | Stability Time at Room Temperature (M4N 60 mg/mL in 50% Peppermint Oil, 50% Tween ® 20): >3 days | Stability Time at Room Temperature (M4N 60 mg/mL in Peppermint Oil): <3 days | Stability at Room Temperature (M4N 60 mg/mL suspension in 50% HP-β-CD, 0.5% CMC): >7 days | stable at room temperature (M4N 80 mg/mL in Tween® 20): less than 3 days | Stability Time at Room Temperature (M4N 100 mg/mL in Peppermint Oil): <1 days | Stability Time at Room Temperature (M4N 125 mg/mL in Peppermint Oil): <1 days | stability of the suspension at room temperature (M4N in glycerol monooleate (Glymo), heated to 60° C., cooled): remained stable for two weeks | stable at room temperature (M4N up to 60 mg/mL in 50% Tween® 20 and 50% PEG 400): more than 3 days | Stability Time at Room Temperature (PEG 400 mono-laurate 100%, M4N 20 mg/mL): >3 days | Stability Time at Room Temperature (PEG 400 mono-laurate 100%, M4N 50 mg/mL): <1 days | Stability Time at Room Temperature (Propylene Glycol 100% (w/v), M4N 1 mg/mL): <1 days | Stability Time at Room Temperature (Propylene Glycol 100% (w/v), M4N 10 mg/mL): <1 days | Stability Time at Room Temperature (Propylene Glycol 100% (w/v), M4N 20 mg/mL): <1 days | Stability at Room Temperature (TPGS 20% (w/v), M4N 60 mg/ml, suspension): >3 days | Stability at Room Temperature (TPGS 20% (w/v), M4N 100 mg/ml, suspension): >3 days
